The test system of one series is HCT-8. The experiment in a line: Cytotoxicity against human HCT-8 cells by MTT assay. The class given is toxicity, cell-based. In general terms: Tetrazolium assays rely on reduction of a dye to a coloured formazan, in cell work by metabolically active cells.
The next series concerns PC-9. The experiment in a line: Cytotoxicity against human PC-9 cells by MTT assay. The format is toxicity, cell-based.
For the next series, the system named is HepG2. Description: Cytotoxicity against human HepG2 cells by MTT assay. The format is toxicity, cell-based.
A further series concerns Staphylococcus aureus. The experiment in a line: Antibacterial activity against methicillin-resistant Staphylococcus aureus T144 incubated for 18 hrs by broth microdilution method. The class given is functional. In general terms: Dilution methods test growth across graded concentrations, often in twofold steps.
The test system of a further series is PANC-1. Description: Cytotoxicity against human PANC-1 cells by MTT assay. The format is toxicity, cell-based.
Another series relates to Escherichia coli. The experiment in a line: Antibacterial activity against multi-drug resistant Escherichia coli B2 clinical isolate incubated for 18 hrs by broth microdilution method. The format is functional.
The next series relates to Pseudomonas aeruginosa. Description: Antibacterial activity against wild-type Pseudomonas aeruginosa PAO1 incubated for 18 hrs by broth microdilution method. The class given is functional.
For the next series, the system named is HGC-27. The experiment in a line: Cytotoxicity against human HGC-27 cells by MTT assay. The format is toxicity, cell-based.
In the next series the test system is Enterococcus faecalis. The experiment in a line: Antibacterial activity against vancomycin-resistant Enterococcus faecalis 10 incubated for 18 hrs by broth microdilution method. The class given is functional.

Values after ≈ are worked out from the molar mass of the structure shown.

Our source for the Activity and MIC values is ChEMBL document CHEMBL5360620, “Diphenyl Ether Derivative Rhexocerins and Rhexocercosporins from the Endophytic Fungus Rhexocercosporidium sp. Dzf14 Active against Gram-Positive Bacteria with Multidrug-Resistance” (J Nat Prod, 2023).

For orientation: MIC means the smallest concentration in the dilution series that meets the test's criterion for growth inhibition. Read a high MIC as a less susceptible organism.

Turning to `COC(=O)c1c(O)cc2c(c1C)[C@@H](C=C(C)C)c1c(O)cc(C)cc1O2`, the Activity result in the series with HCT-8, in the series on PC-9, with HepG2, in the series on PANC-1 and with HGC-27 was “Non-Toxic” throughout. Moreover, the MIC in the series on Staphylococcus aureus was 16 µg/mL (≈ 45.1 µM); with Escherichia coli it was more than 32 µg/mL; in the series with Pseudomonas aeruginosa it was more than 32 µg/mL; in the series on Enterococcus faecalis, 8 µg/mL (≈ 22.6 µM).

Turning to `CC(C)=C[C@H]1c2c(O)cc(C)cc2Oc2cc(O)c(C(=O)O)c(C)c21`, the Activity entry in the series with HCT-8, with PC-9, with HepG2, with PANC-1 and with HGC-27 was “Non-Toxic” each time. Also, the MIC against Staphylococcus aureus was 16 µg/mL (≈ 47 µM); in the series on Escherichia coli, more than 32 µg/mL; in the series with Pseudomonas aeruginosa it was more than 32 µg/mL; in the series on Enterococcus faecalis, 16 µg/mL (≈ 47 µM).

Take `COC(=O)c1c(O)cc2c(c1C)C=C1c3c(cc(C)c(O)c3O2)OC1(C)C`: the Activity entry in the series with HCT-8, with PC-9, in the series on HepG2, in the series with PANC-1 and in the series with HGC-27 was “Non-Toxic” throughout. For the same compound, the MIC against Staphylococcus aureus is 16 µg/mL (≈ 43.4 µM); in the series on Escherichia coli, more than 32 µg/mL; against Pseudomonas aeruginosa it was more than 32 µg/mL; against Enterococcus faecalis, 16 µg/mL (≈ 43.4 µM).

As to `COC(=O)c1c(OC)cc2c(c1C)[C@@H](C=C(C)C)C1=C(O2)C(=O)C(C)=CC1=O`, the Activity entry in the series on HCT-8, with PC-9, in the series on HepG2, in the series with PANC-1 and in the series with HGC-27 was “Non-Toxic” in each case. Moreover, the MIC was 32 µg/mL (≈ 83.7 µM) with Staphylococcus aureus, more than 32 µg/mL in the series on Escherichia coli, more than 32 µg/mL in the series on Pseudomonas aeruginosa and 8 µg/mL (≈ 20.9 µM) with Enterococcus faecalis.

Regarding COLISTIN, the MIC with Escherichia coli was 2 µg/mL; in the series with Pseudomonas aeruginosa, 0.13 µg/mL.

For `COC(=O)c1c(OC)cc2c(c1C)[C@H](O)[C@H]1c3c(cc(C)c(O)c3O2)OC1(C)C`, the Activity result with HCT-8, in the series with PC-9, with HepG2, in the series on PANC-1 and in the series with HGC-27 was “Non-Toxic” in each case.

Regarding `COC(=O)c1c(OC)cc2c(c1C)[C@@H](C=C(C)C)c1c(O)cc(C)cc1O2`, the Activity entry in the series on HCT-8, in the series on PC-9, with HepG2, in the series with PANC-1 and in the series with HGC-27 was “Non-Toxic” throughout. Besides, the MIC is 4 µg/mL (≈ 10.9 µM) in the series on Staphylococcus aureus, more than 32 µg/mL against Escherichia coli, more than 32 µg/mL in the series on Pseudomonas aeruginosa and 4 µg/mL (≈ 10.9 µM) in the series with Enterococcus faecalis.

Consider `COC(=O)c1c(O)cc2c(c1C)[C@@H](C=C(C)C)C1=C(O2)C(=O)C(C)=CC1=O`, for which the Activity entry in the series with HCT-8, with PC-9, with HepG2, with PANC-1 and in the series on HGC-27 was “Non-Toxic” throughout. Also, the MIC against Staphylococcus aureus is more than 32 µg/mL; in the series with Escherichia coli, more than 32 µg/mL; with Pseudomonas aeruginosa, more than 32 µg/mL; against Enterococcus faecalis, 8 µg/mL (≈ 21.7 µM).

Consider `CN[C@H](CC(C)C)C(=O)N[C@H]1C(=O)N[C@@H](CC(N)=O)C(=O)N[C@H]2C(=O)N[C@H]3C(=O)N[C@H](C(=O)N[C@H](C(=O)O)c4cc(O)cc(O)c4-c4cc3ccc4O)[C@H](O)c3ccc(c(Cl)c3)Oc3cc2cc(c3O[C@@H]2O[C@H](CO)[C@@H](O)[C@H](O)[C@H]2O[C@H]2C[C@](C)(N)[C@H](O)[C@H](C)O2)Oc2ccc(cc2Cl)[C@H]1O` [VANCOMYCIN], for which, in the series on Enterococcus faecalis, the MIC is more than 128 µg/mL.

Turning to `COC(=O)c1c(OC)cc2c(c1C)[C@H](OC)[C@H]1c3c(cc(C)c(O)c3O2)OC1(C)C`, the Activity result with HCT-8, in the series on PC-9, in the series on HepG2, in the series with PANC-1 and in the series on HGC-27 was “Non-Toxic” each time.

For `COC(=O)c1c(OC)cc2c(c1C)[C@@H](C=C(C)C)c1c(O)cc(C)c(OC)c1O2`, the Activity entry in the series with HCT-8, in the series with PC-9, in the series with HepG2, in the series on PANC-1 and with HGC-27 was “Non-Toxic” throughout.

As to `COC(=O)c1c(OC)cc2c(c1C)C=C1c3c(cc(C)c(O)c3O2)OC1(C)C`, the Activity result with HCT-8, in the series with PC-9, in the series on HepG2, in the series with PANC-1 and with HGC-27 was “Non-Toxic” in each case.
